As usually defined, the IC50 is the midpoint of a concentration-inhibition curve.

Experimental findings from ChEMBL document CHEMBL5042519, “Design and synthesis of marine sesterterpene analogues as novel estrogen receptor α degraders for breast cancer treatment” (Eur J Med Chem, 2022) are described below.

Counter-ions that a name gives are not always drawn. Active and inactive are the calls of the source. No cut-off for these calls is given here.

Data set [1] in a line: Antiproliferative activity against human MCF-10A cells assessed as reduction in cell viability after 48 hrs by MTT assay. The class given is toxicity, cell-based. For orientation: Tetrazolium dyes change colour on reduction, which living cells bring about.
The test system of data set [2] is MCF7. The data set can be described thus: Antiproliferative activity against human MCF7 cells assessed as reduction in cell viability after 48 hrs by MTT assay. The class given is functional, cell-based. Particulars: MCF7, 48 h.
Data set [3] relates to MCF7. As to the kind of experiment: Antiproliferative activity against human MCF7/ADR cells assessed as reduction in cell viability after 48 hrs by MTT assay. The class given is functional, cell-based. Particulars: MCF7, 48 h.
A short description of data set [4]: Resistance index, ratio of IC50 for antiproliferative activity against human MCF7/ADR cells to IC50 for antiproliferative activity against human MCF7 cells. The class given is functional.
Data set [5] has as its system MDA-MB-231. As to the kind of experiment: Antiproliferative activity against human MDA-MB-231 cells assessed as reduction in cell viability after 48 hrs by MTT assay. Particulars: MDA-MB-231, 48 h.
Data set [6] is described as follows: Selectivity index, ratio of IC50 for antiproliferative activity against human MCF-10A cells to IC50 for antiproliferative activity against human MDA-MB-231 cells by MTT assay. The class given is toxicity, cell-based. Particulars: MCF-10A cells versus MDA-MB-231 cells, read-out: Ratio IC50.
Data set [7] deals with T1, Estrogen receptor (Homo sapiens) (UniProt P03372).
T1 sequence (whole entry): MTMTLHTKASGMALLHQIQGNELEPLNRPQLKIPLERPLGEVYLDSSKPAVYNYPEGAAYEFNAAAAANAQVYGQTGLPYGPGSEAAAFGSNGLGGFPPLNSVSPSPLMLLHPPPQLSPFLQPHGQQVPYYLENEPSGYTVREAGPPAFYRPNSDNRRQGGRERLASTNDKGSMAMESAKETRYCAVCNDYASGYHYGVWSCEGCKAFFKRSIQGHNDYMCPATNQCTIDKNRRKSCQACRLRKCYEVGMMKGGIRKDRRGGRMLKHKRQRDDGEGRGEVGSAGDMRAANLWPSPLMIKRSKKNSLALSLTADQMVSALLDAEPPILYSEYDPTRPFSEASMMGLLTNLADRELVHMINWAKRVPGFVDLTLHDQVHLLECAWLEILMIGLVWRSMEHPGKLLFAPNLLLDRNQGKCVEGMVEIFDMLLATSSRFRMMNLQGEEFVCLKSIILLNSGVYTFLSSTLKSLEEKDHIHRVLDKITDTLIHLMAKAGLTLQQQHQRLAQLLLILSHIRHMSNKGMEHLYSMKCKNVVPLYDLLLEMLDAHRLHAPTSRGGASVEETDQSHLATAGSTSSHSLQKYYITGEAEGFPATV
The data set can be described thus: Induction of ERalpha degradation in human MCF7 cells assessed as decrease in ERalpha protein expression at 1 uM incubated for 24 hrs by Western blot analysis. The class given is cell-based.

Data set [8] can be described thus: Metabolic stability in rat plasma assessed as parent compound remaining incubated for 60 mins in presence of NADPH by UPLC-MS analysis. The class given is ADME, cell-free. Particulars: read-out: Stability.
A short description of data set [9]: Metabolic stability in rat liver microsomes assessed as assessed as intrinsic clearance incubated for 60 mins in presence of NADPH by UPLC-MS analysis. The class given is ADME, Microsome. Particulars: read-out: CLH. In general terms: Liver microsomes are vesicles of endoplasmic reticulum, rich in cytochrome P450 enzymes.

With `CC(C)=C/C=C\[C@H](C)[C@H]1CC[C@]2(C)C[C@@H]3C(C)=CC(=O)[C@H]3/C(C=O)=C\C[C@@H]12`, the IC50 at 48 h in data set [1] is 3.68 µM. Moreover, the IC50 in data set [2] turned out to be 3.92 µM; in data set [3], 2.48 µM; in data set [5] it was 2.1 µM. Further, in [4], the “Ratio IC50” value is recorded as 0.63. Further, the selectivity ratio in [6] was 0.94. Moreover, the outcome in data set [7] was Active. Also, the remaining at 1 h in data set [8] was found to be 97%. Also, the microsomal CLint in data set [9] was determined as 14.5 µL/min/mg.

Take `CCCCCCCCOC(=O)/C=C/[C@H](C)[C@H]1CC[C@]2(C)C[C@@H]3C(C)=CC(=O)[C@H]3/C(C=O)=C\C[C@@H]12`: the IC50 at 48 h in [1] worked out at 1.57 µM. Further, the IC50 in data set [2] amounted to 1.42 µM; in [3], 0.52 µM; in data set [5], 0.42 µM. For the same compound, in data set [4], the “Ratio IC50” value amounted to 0.37. In [6], the selectivity ratio came to 1.11.

With `CCCCCCCCCOC(=O)/C=C\C=C/[C@H](C)[C@H]1CC[C@]2(C)C[C@@H]3C(C)=CC(=O)[C@H]3/C(C=O)=C\C[C@@H]12`, in data set [1], the IC50 at 48 h amounted to 4.83 µM. In addition, the half-maximal inhibitory concentration (IC50) in [2] came to 2.53 µM; in data set [3], 1.12 µM; in [5] it was 0.77 µM. The “Ratio IC50” value in [4] is reported as 0.44. Besides, the selectivity ratio in [6] is 1.91.

As for `CCCCCCCCCCOC(=O)/C=C/[C@H](C)[C@H]1CC[C@]2(C)C[C@@H]3C(C)=CC(=O)[C@H]3/C(C=O)=C\C[C@@H]12`, the IC50 at 48 h in data set [1] was found to be 2.16 µM. Besides, the IC50 in [2] came out at 1.66 µM; in data set [3] it was 1.03 µM; in data set [5], 0.3 µM. Besides, the “Ratio IC50” value in data set [4] is reported as 0.62. For the same compound, the selectivity ratio in data set [6] was determined as 1.3.

For the compound `COc1cccc2c1C(=O)c1c(O)c3c(c(O)c1C2=O)C[C@@](O)(C(=O)CO)C[C@@H]3O[C@H]1C[C@H](N)[C@H](O)[C@H](C)O1` [DOXORUBICIN HYDROCHLORIDE], in [1], the IC50 at 48 h is 0.86 µM.

As for `CC1=CC(=O)[C@H]2/C(C=O)=C\C[C@H]3[C@@H]([C@@H](C)/C=C\C=C/C(=O)OCCOCCOCCOCCOC(=O)CC45CC6CC(CC(C6)C4)C5)CC[C@]3(C)C[C@H]12`, the values for the IC50 in [2], in data set [3] and in [5] were 1.26 µM, 2.03 µM and 1.01 µM, respectively. Moreover, the “Ratio IC50” value in data set [4] is listed as 1.61. Also, the result in data set [7] was Active.

In the case of `CCCCCCCOC(=O)/C=C\C=C/[C@H](C)[C@H]1CC[C@]2(C)C[C@@H]3C(C)=CC(=O)[C@H]3/C(C=O)=C\C[C@@H]12`, the IC50 in data set [2] is 1.38 µM; in data set [3], 0.94 µM; in data set [5] it was 0.69 µM. Moreover, in data set [4], the “Ratio IC50” value came to 0.68. For the same compound, the result in data set [7] was Active.

Turning to `CCCCCCOC(=O)/C=C\C=C/[C@H](C)[C@H]1CC[C@]2(C)C[C@@H]3C(C)=CC(=O)[C@H]3/C(C=O)=C\C[C@@H]12`, the concentration for half-maximal inhibition (IC50) at 48 h in [1] is 1.58 µM. For the same compound, the IC50 in data set [2] was 1.04 µM; in data set [3], 0.79 µM; in data set [5], 0.64 µM. The “Ratio IC50” value in [4] was determined as 0.76. In data set [6], the selectivity ratio worked out at 1.52. Moreover, the outcome in [7] was Active.

With `CC1=CC(=O)[C@H]2/C(C=O)=C\C[C@H]3[C@@H]([C@@H](C)/C=C\C=C/C(=O)OCCOCCOC(=O)CC45CC6CC(CC(C6)C4)C5)CC[C@]3(C)C[C@H]12`, the IC50 at 48 h in data set [1] worked out at 2.4 µM. The IC50 in data set [2] worked out at 0.69 µM; in data set [3], 0.87 µM; in [5] it was 0.54 µM. Further, the “Ratio IC50” value in data set [4] was found to be 1.26. In [6], the selectivity ratio was found to be 3.48. The result in [7] was Active.
